# Key:
# Assay in all cases: Test C preemergence
# Format in all cases: in vivo
# Conditions in all cases: scale 0 to 100, 0 no effect, 100 complete control
# soybean (Glycine max) = tested on: soybean (Glycine max)
# Outline: (§1)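 Herbicidal effect, applied preemergence to sown seeds or postemergence to 1- to 4-leaf plants, was scored visually 13 to 15 d after application, 0 to 100 versus controls.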
# [1] = tested on: ragweed (common ragweed, Ambrosia elatior)
# Outline: as §1
# [2] = tested on: waterhemp (common waterhemp, Amaranthus rudis)
# Outline: as §1
# [3] = tested on: nutsedge, yellow (yellow nutsedge, Cyperus esculentus)
# Outline: as §1
# [4] = tested on: ryegrass, Italian (Italian ryegrass, Lolium multiflorum)
# Outline: as §1
# [5] = tested on: velvetleaf (Abutilon theophrasti)
# Outline: as §1
# [6] = tested on: pigweed (Amaranthus retroflexus)
# Outline: as §1
# [7] = tested on: morningglory (Ipomoea coccinea)
# Outline: as §1
# [8] = tested on: oilseed rape (Brassica napus)
# Outline: as §1
# [9] = tested on: foxtail, giant (giant foxtail, Setaria faberii)
# Outline: as §1
# [10] = tested on: crabgrass, large (large crabgrass, Digitaria sanguinalis)
# Outline: as §1
# [11] = tested on: lambsquarters (Chenopodium album)
# Outline: as §1
# [12] = tested on: wheat (winter wheat, Triticum aestivum)
# Outline: as §1
# [13] = tested on: barnyardgrass (Echinochloa crus-galli)
# Outline: as §1
# [14] = tested on: johnsongrass (Sorghum halepense)
# Outline: as §1
# corn (Zea mays) = tested on: corn (Zea mays)
# Outline: as §1
smiles,measurement,setting,value
CN1CC(c2cccc(OC(F)(F)C(F)F)c2)C(C(=O)Nc2ccc(F)cc2F)C1=O (stereo not shown) [Compound 393],"Plant response rating, Soybean",soybean (Glycine max); 62 g ai/ha,10
same,"Plant response rating, Soybean",soybean (Glycine max); 125 g ai/ha,15
same,"Plant response rating, Soybean",soybean (Glycine max); 250 g ai/ha,30
same,"Plant response rating, Ragweed",[1]; 31 g ai/ha,35
same,"Plant response rating, Ragweed",[1]; 62 g ai/ha,35
same,"Plant response rating, Ragweed",[1]; 125 g ai/ha,40
same,"Plant response rating, Ragweed",[1]; 250 g ai/ha,65
same,"Plant response rating, Waterhemp",[2]; 62 g ai/ha,80
same,"Plant response rating, Waterhemp",[2]; 125 g ai/ha,85
same,"Plant response rating, Waterhemp",[2]; 250 g ai/ha,90
same,"Plant response rating, Nutsedge, Yellow",[3]; 31 g ai/ha,0
same,"Plant response rating, Nutsedge, Yellow",[3]; 62 g ai/ha,0
same,"Plant response rating, Nutsedge, Yellow",[3]; 125 g ai/ha,0
same,"Plant response rating, Nutsedge, Yellow",[3]; 250 g ai/ha,0
same,"Plant response rating, Ryegrass, Italian",[4]; 62 g ai/ha,30
same,"Plant response rating, Ryegrass, Italian",[4]; 125 g ai/ha,30
same,"Plant response rating, Ryegrass, Italian",[4]; 250 g ai/ha,45
same,"Plant response rating, Velvetleaf",[5]; 62 g ai/ha,35
same,"Plant response rating, Velvetleaf",[5]; 125 g ai/ha,50
same,"Plant response rating, Velvetleaf",[5]; 250 g ai/ha,80
same,"Plant response rating, Pigweed",[6]; 31 g ai/ha,70
same,"Plant response rating, Pigweed",[6]; 62 g ai/ha,75
same,"Plant response rating, Pigweed",[6]; 125 g ai/ha,85
same,"Plant response rating, Pigweed",[6]; 250 g ai/ha,90
same,"Plant response rating, Morningglory",[7]; 31 g ai/ha,0
same,"Plant response rating, Morningglory",[7]; 62 g ai/ha,10
same,"Plant response rating, Morningglory",[7]; 125 g ai/ha,10
same,"Plant response rating, Morningglory",[7]; 250 g ai/ha,10
same,"Plant response rating, Oilseed Rape",[8]; 31 g ai/ha,0
same,"Plant response rating, Oilseed Rape",[8]; 62 g ai/ha,40
same,"Plant response rating, Oilseed Rape",[8]; 125 g ai/ha,80
same,"Plant response rating, Oilseed Rape",[8]; 250 g ai/ha,85
same,"Plant response rating, Foxtail, Giant",[9]; 31 g ai/ha,90
same,"Plant response rating, Foxtail, Giant",[9]; 62 g ai/ha,95
same,"Plant response rating, Foxtail, Giant",[9]; 125 g ai/ha,95
same,"Plant response rating, Foxtail, Giant",[9]; 250 g ai/ha,95
same,"Plant response rating, Crabgrass, Large",[10]; 31 g ai/ha,95
same,"Plant response rating, Crabgrass, Large",[10]; 62 g ai/ha,95
same,"Plant response rating, Crabgrass, Large",[10]; 125 g ai/ha,95
same,"Plant response rating, Crabgrass, Large",[10]; 250 g ai/ha,98
same,"Plant response rating, Lambsquarters",[11]; 31 g ai/ha,55
same,"Plant response rating, Lambsquarters",[11]; 62 g ai/ha,75
same,"Plant response rating, Lambsquarters",[11]; 125 g ai/ha,75
same,"Plant response rating, Lambsquarters",[11]; 250 g ai/ha,85
same,"Plant response rating, Wheat",[12]; 62 g ai/ha,20
same,"Plant response rating, Wheat",[12]; 125 g ai/ha,35
same,"Plant response rating, Wheat",[12]; 250 g ai/ha,70
same,"Plant response rating, Barnyardgrass",[13]; 31 g ai/ha,90
same,"Plant response rating, Barnyardgrass",[13]; 62 g ai/ha,90
same,"Plant response rating, Barnyardgrass",[13]; 125 g ai/ha,95
same,"Plant response rating, Barnyardgrass",[13]; 250 g ai/ha,95
same,"Plant response rating, Johnsongrass",[14]; 31 g ai/ha,70
same,"Plant response rating, Johnsongrass",[14]; 62 g ai/ha,80
same,"Plant response rating, Johnsongrass",[14]; 125 g ai/ha,85
same,"Plant response rating, Johnsongrass",[14]; 250 g ai/ha,85
same,"Plant response rating, Corn",corn (Zea mays); 31 g ai/ha,0
same,"Plant response rating, Corn",corn (Zea mays); 62 g ai/ha,40
same,"Plant response rating, Corn",corn (Zea mays); 125 g ai/ha,55
same,"Plant response rating, Corn",corn (Zea mays); 250 g ai/ha,70
CN1CC(c2cccc(C(F)(F)F)c2)C(C)(C(=O)Nc2ccccc2F)C1=O (stereo not shown) [Compound 428],"Plant response rating, Soybean",soybean (Glycine max); 62 g ai/ha,0
same,"Plant response rating, Soybean",soybean (Glycine max); 125 g ai/ha,0
same,"Plant response rating, Soybean",soybean (Glycine max); 250 g ai/ha,15
same,"Plant response rating, Ragweed",[1]; 31 g ai/ha,0
same,"Plant response rating, Ragweed",[1]; 62 g ai/ha,0
same,"Plant response rating, Ragweed",[1]; 125 g ai/ha,0
same,"Plant response rating, Ragweed",[1]; 250 g ai/ha,0
same,"Plant response rating, Waterhemp",[2]; 62 g ai/ha,0
same,"Plant response rating, Waterhemp",[2]; 125 g ai/ha,10
same,"Plant response rating, Waterhemp",[2]; 250 g ai/ha,35
same,"Plant response rating, Nutsedge, Yellow",[3]; 31 g ai/ha,0
same,"Plant response rating, Nutsedge, Yellow",[3]; 62 g ai/ha,0
same,"Plant response rating, Nutsedge, Yellow",[3]; 125 g ai/ha,0
same,"Plant response rating, Nutsedge, Yellow",[3]; 250 g ai/ha,30
same,"Plant response rating, Ryegrass, Italian",[4]; 62 g ai/ha,40
same,"Plant response rating, Ryegrass, Italian",[4]; 125 g ai/ha,40
same,"Plant response rating, Ryegrass, Italian",[4]; 250 g ai/ha,45
same,"Plant response rating, Velvetleaf",[5]; 62 g ai/ha,0
same,"Plant response rating, Velvetleaf",[5]; 125 g ai/ha,0
same,"Plant response rating, Velvetleaf",[5]; 250 g ai/ha,10
same,"Plant response rating, Pigweed",[6]; 31 g ai/ha,10
same,"Plant response rating, Pigweed",[6]; 62 g ai/ha,0
same,"Plant response rating, Pigweed",[6]; 125 g ai/ha,0
same,"Plant response rating, Pigweed",[6]; 250 g ai/ha,40
same,"Plant response rating, Morningglory",[7]; 31 g ai/ha,0
same,"Plant response rating, Morningglory",[7]; 62 g ai/ha,0
same,"Plant response rating, Morningglory",[7]; 125 g ai/ha,0
same,"Plant response rating, Morningglory",[7]; 250 g ai/ha,0
same,"Plant response rating, Oilseed Rape",[8]; 31 g ai/ha,0
same,"Plant response rating, Oilseed Rape",[8]; 62 g ai/ha,0
same,"Plant response rating, Oilseed Rape",[8]; 125 g ai/ha,0
same,"Plant response rating, Oilseed Rape",[8]; 250 g ai/ha,15
same,"Plant response rating, Foxtail, Giant",[9]; 31 g ai/ha,85
same,"Plant response rating, Foxtail, Giant",[9]; 62 g ai/ha,90
same,"Plant response rating, Foxtail, Giant",[9]; 125 g ai/ha,90
same,"Plant response rating, Foxtail, Giant",[9]; 250 g ai/ha,95
same,"Plant response rating, Crabgrass, Large",[10]; 31 g ai/ha,90
same,"Plant response rating, Crabgrass, Large",[10]; 62 g ai/ha,95
same,"Plant response rating, Crabgrass, Large",[10]; 125 g ai/ha,98
same,"Plant response rating, Crabgrass, Large",[10]; 250 g ai/ha,98
same,"Plant response rating, Lambsquarters",[11]; 31 g ai/ha,0
same,"Plant response rating, Lambsquarters",[11]; 62 g ai/ha,10
same,"Plant response rating, Lambsquarters",[11]; 125 g ai/ha,35
same,"Plant response rating, Lambsquarters",[11]; 250 g ai/ha,65
same,"Plant response rating, Wheat",[12]; 62 g ai/ha,15
same,"Plant response rating, Wheat",[12]; 125 g ai/ha,50
same,"Plant response rating, Wheat",[12]; 250 g ai/ha,80
same,"Plant response rating, Barnyardgrass",[13]; 31 g ai/ha,90
same,"Plant response rating, Barnyardgrass",[13]; 62 g ai/ha,95
same,"Plant response rating, Barnyardgrass",[13]; 125 g ai/ha,95
same,"Plant response rating, Barnyardgrass",[13]; 250 g ai/ha,98
same,"Plant response rating, Johnsongrass",[14]; 31 g ai/ha,5
same,"Plant response rating, Johnsongrass",[14]; 62 g ai/ha,50
same,"Plant response rating, Johnsongrass",[14]; 125 g ai/ha,65
same,"Plant response rating, Johnsongrass",[14]; 250 g ai/ha,75
same,"Plant response rating, Corn",corn (Zea mays); 31 g ai/ha,15
same,"Plant response rating, Corn",corn (Zea mays); 62 g ai/ha,25
same,"Plant response rating, Corn",corn (Zea mays); 125 g ai/ha,55
same,"Plant response rating, Corn",corn (Zea mays); 250 g ai/ha,70

# From US12077503B2, “Substituted cyclic amides and their use as herbicides” (FMC CORPORATION, priority 2015, dated 2024)
